Literature values as cited in US20160143876A1, “MAINTENANCE THERAPY REGIME/REGIMEN FOR THE TREATMENT OF ACNE” (GALDERMA RESEARCH & DEVELOPMENT, priority 2008, published 2016).

What was measured:
[1] = applied as monotherapy
acne = conditions: in vivo

SMILES	Tolerability profile compared to other topical retinoids [1]	Patients who relapse after treatment (acne)
COc1ccc(-c2ccc3cc(C(=O)O)ccc3c2)cc1C12CC3CC(CC(C3)C1)C2 [Adapalene, 6-[3-(1-adamantyl)-4-methoxyphenyl]-2-naphtoic acid]	more favorable tolerability profile	–
CC1=C(/C=C/C(C)=C/C=C/C(C)=C\C(=O)O)C(C)(C)CCC1 [isotretinoin]	–	up to 21%
